{"source": "patent US11583507B2", "about": "“Direct AMPK activator compounds” (SOCIETE DES PRODUITS NESTLE S.A., priority 2018, dated 2023)", "key": {"[1]": {"biological_target": "T1, AMPK α2β1γ1 R298G (211 R298G) mutant (Homo sapiens, UniProt P54619+P54646+Q9Y478, R299G)", "T1 construct": "His; made in house; host or cells: bacteria", "T1 sequence (P54646 whole entry)": "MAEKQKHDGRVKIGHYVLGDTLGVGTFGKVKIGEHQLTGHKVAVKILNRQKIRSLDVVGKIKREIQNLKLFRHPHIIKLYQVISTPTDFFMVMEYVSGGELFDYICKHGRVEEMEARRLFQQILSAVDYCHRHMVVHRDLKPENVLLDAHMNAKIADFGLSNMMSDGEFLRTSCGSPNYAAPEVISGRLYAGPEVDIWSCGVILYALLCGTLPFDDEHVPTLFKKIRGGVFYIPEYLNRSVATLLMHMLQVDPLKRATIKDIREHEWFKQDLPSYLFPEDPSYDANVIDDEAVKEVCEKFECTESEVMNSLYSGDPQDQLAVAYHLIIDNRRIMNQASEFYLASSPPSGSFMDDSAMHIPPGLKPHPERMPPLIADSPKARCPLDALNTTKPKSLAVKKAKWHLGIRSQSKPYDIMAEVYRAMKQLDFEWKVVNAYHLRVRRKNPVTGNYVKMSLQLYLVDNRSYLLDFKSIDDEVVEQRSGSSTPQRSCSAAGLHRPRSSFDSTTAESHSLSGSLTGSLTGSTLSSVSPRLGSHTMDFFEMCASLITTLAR", "T1 sequence (Q9Y478 whole entry)": "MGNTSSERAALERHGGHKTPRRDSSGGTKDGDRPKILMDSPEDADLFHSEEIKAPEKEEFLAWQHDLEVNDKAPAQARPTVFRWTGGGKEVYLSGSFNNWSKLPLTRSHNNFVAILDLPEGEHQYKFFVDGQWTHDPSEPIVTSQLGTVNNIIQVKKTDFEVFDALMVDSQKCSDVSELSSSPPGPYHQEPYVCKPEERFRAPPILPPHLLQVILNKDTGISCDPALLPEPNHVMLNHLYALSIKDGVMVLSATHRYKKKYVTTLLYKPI", "T1 sequence (P54619 whole entry R299G)": "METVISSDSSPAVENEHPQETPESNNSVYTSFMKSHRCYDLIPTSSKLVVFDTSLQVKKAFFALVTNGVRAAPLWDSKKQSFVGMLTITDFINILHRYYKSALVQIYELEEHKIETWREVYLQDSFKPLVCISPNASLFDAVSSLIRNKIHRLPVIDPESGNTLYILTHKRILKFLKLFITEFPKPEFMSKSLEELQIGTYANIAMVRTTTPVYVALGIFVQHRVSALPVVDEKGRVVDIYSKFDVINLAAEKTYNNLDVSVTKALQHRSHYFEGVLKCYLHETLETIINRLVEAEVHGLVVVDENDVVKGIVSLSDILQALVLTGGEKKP", "assay": "AMPK in vitro activity assay (HTRF-KinEASE), γ1 R298G mutant", "format": "biochemical", "conditions": "mutation in the γ1 AMP binding pocket", "experimental": "(§1) Lusianthridin (CAS 87530-30-1) was isolated from Thunia alba fruit. It was sourced from Analyticon (NP-012362). The plant was purchased through Analyticon's biomaterial supplier in 2003. The country of origin is Nepal. The AMPK heterotrimers were expressed in bacteria and purified through the His-α subunit by nickel purification. AMPK complexes were purified through gel filtration and phosphorylated by incubation with CaMKKβ, and further purified with a final gel filtration purification step. Phosphorylated purified AMPK was incubated with varying concentrations of ligand for 30 mins using substrate and reagents from the HTRF-KinEASE Cisbio assay kit (STK S1 Kit). Phosphorylation of the substrate was measured by incubating with donor and acceptor antibodies for 2 h at room temperature as per the manufacturer's protocol (and Coulerie et al., (2016) PMID: 27792327) and phosphorylated peptide detected by performing HTRF. The 665 nm/620 nm ratio was determined and the results are plotted as fold activation compared to the respective AMPK complex without any compound."}, "[2]": {"tested_on": "AMPK substrate, acetyl-CoA carboxylase (ACC)", "assay": "pACC HTRF assay in U2OS Flp-In T-REx cells", "format": "cell-based", "conditions": "1 h, varying concentrations, dose-dependent", "experimental": "U2OS Flp-In T-REx cells were seeded at 100 K in a 96-well plate and left overnight at 37 C in DMEM GlutaMAX (Thermo Fisher Scientific) supplemented with 10% (vol/vol) FBS and 100 U/ml penicillin G, and 100 μg/ml streptomycin. Cells were treated for 1 h with varying concentrations of Lusianthridin in media lacking FBS and then cells were lysed in 50 μl of Cisbio lysis buffer #1 supplemented with blocking solution as per the manufacturer's protocol (Cisbio). Cells were lysed for 30 mins at room temperature before 16 μl of lysate was incubated with 4 μl of the HTRF antibodies (1:40 dilution of the acceptor and donor (p)ACC antibodies, as per the manufacturers protocol). Lysates were incubated overnight with the antibodies before 665 nm/620 nm ratio was determined using a MolecularDevices i3 plate reader (with a HTRF cartridge add-on). For western blot analysis, SDS-sample buffer was added to the remainder of the lysate, denatured at 95 C and then subjected to western blot analysis with phospho-specific and total ACC antibodies (Cell Signalling). Bands were visualized by incubating with Li-Cor secondary antibody and scanned on a Li-Cor Odyssey machine."}, "AMPKα2β1γ1 (211)": {"biological_target": "T2, AMPKα2β1γ1 (211) (Homo sapiens, UniProt P54619+P54646+Q9Y478)", "T2 construct": "His; made in house; host or cells: bacteria", "assay": "AMPK in vitro activity assay (HTRF-KinEASE), phosphorylated bacterially-expressed complex", "format": "biochemical", "conditions": "fold activation vs complex without compound; 30 mins incubation", "experimental": "as §1"}, "AMPKα1β1γ1 (111)": {"biological_target": "T3, AMPKα1β1γ1 (111) (Homo sapiens, UniProt P54619+Q13131+Q9Y478)", "T3 construct": "His; made in house; host or cells: bacteria", "assay": "AMPK in vitro activity assay (HTRF-KinEASE), α1-containing complex", "format": "biochemical", "conditions": "fold activation vs complex without compound", "experimental": "as §1"}, "[3]": {"tested_on": "AMPK α2β1γ1 ΔCBM mutant (211 ΔCBM)", "assay": "AMPK in vitro activity assay (HTRF-KinEASE), ΔCBM mutant", "format": "biochemical", "conditions": "carbohydrate-binding module deleted", "experimental": "as §1"}, "AMPK α2β2γ1 (221)": {"biological_target": "T4, AMPK α2β2γ1 (221) (Homo sapiens, UniProt O43741+P54619+P54646)", "T4 construct": "His; made in house; host or cells: bacteria", "assay": "AMPK in vitro activity assay (HTRF-KinEASE), β2-containing complex", "format": "biochemical", "conditions": "fold activation vs complex without compound", "experimental": "as §1"}, "[4]": {"tested_on": "differentiated C2C12 cells", "assay": "Glucose uptake (3H-2-deoxyglucose) into differentiated C2C12 cells", "format": "cell-based", "conditions": "Lusianthridin 100 μM for 4 h at 37 C", "experimental": "C2C12 cells were maintained in DMEM GlutaMAX supplemented with 10% (vol/vol) FBS and 100 U/ml penicillin G, and 100 μg/ml streptomycin. C2C12 myoblasts were differentiated into myotubes by 7 days of culture in DMEM GlutaMAX supplemented with 2% (vol/vol) horse serum and antibiotics. Cells were transferred to serum-free media for 24 hours, before equilibrating with bicarbonate-free medium prior to treatment. Cells were treated with Control (DMSO 1% final concentration) or 100 μM Lusianthridin in the presence of ^3H-2-deoxyglucose (in Krebs-Hepes buffer containing sodium pyruvate). Cells were lysed and the quantity of ^3H determined in these samples using a scintillation counter.\nActivation of AMPK in muscle cells has been previously shown to increase glucose uptake. […] Differentiated C2C12 cells were treated with either control or 100 μM Lusianthridin for 4 h at 37 C. Glucose uptake was determined by monitoring the uptake of ^3H-2-deoxyglucose into cells. […] This is consistent with the important role of AMPK in mediating glucose uptake in muscle."}, "primary hepatocytes": {"tested_on": "primary hepatocytes", "assay": "Lipogenesis ([1-14C]-acetate incorporation into fatty acids) in primary hepatocytes", "format": "cell-based, mouse", "conditions": "1 h at 37 C, varying concentrations", "experimental": "Hepatocyte isolation: The liver was first perfused with 50 ml perfusion buffer (Krebs-Hepes buffer with […] EDTA), followed with 50 ml collagenase A buffer (Krebs-Hepes buffer with 5 mM CaCl2 and 0.5 mg/ml collagenase). […] Hepatocytes were left to attach (3-4 h) and cultured overnight in M199 supplemented with antibiotics and 100 nM dexamethasone. Cells were used for experiments the following morning. For primary hepatocyte isolation see Example 4. For lipogenesis measurements in primary hepatocytes, cells were seeded at 600 K cells per well in a 6-well plate overnight. Media was replaced with fresh M199 media alone for 2 hours prior to incubation with varying concentrations of Lusianthridin for 1 h at 37 C, in the presence of [1-^14C]-acetate. The incorporation of [^14C] into fatty acids was determined in the lower organic layer after separation from the aqueous phase. […] Lipogenesis is controlled by the AMPK substrate ACC, and phosphorylation and inhibition of ACC by AMPK, leads to a decrease in lipogenesis. Lipogenesis was measured in primary hepatocytes by determining the incorporation of ^14C-labelled acetate into fatty acids. Lipogenesis was monitored in the presence or absence of varying concentrations of Lusianthridin for 1 h at 37 C. […] This observation is consistent with its ability to activate AMPK in hepatocytes, which leads to the phosphorylation and inhibition of ACC."}, "[5]": {"biological_target": "T5, AMPK α2β1γ1 S108A mutant (211 S108A) (Homo sapiens, UniProt P54619+P54646+Q9Y478, S108A)", "T5 construct": "His; made in house; host or cells: bacteria", "T5 sequence (P54646 whole entry)": "as the sequence (P54646 whole entry) above", "T5 sequence (Q9Y478 whole entry S108A)": "as the sequence (Q9Y478 whole entry) above, with S108A counted along it", "T5 sequence (P54619 whole entry)": "as the sequence (P54619 whole entry R299G) above, with G299R counted along it", "assay": "AMPK in vitro activity assay (HTRF-KinEASE), β1 S108A mutant", "format": "biochemical", "experimental": "as §1"}, "[6]": {"tested_on": "mouse primary hepatocytes", "assay": "MTT cytotoxicity assay in mouse primary hepatocytes", "conditions": "1 h at 37 C, Lusianthridin up to 100 μM", "method": "Mouse primary hepatocytes were treated with the indicated concentrations of Lusianthridin, Oligomycin and FCCP for 1 h at 37 C. Cell viability was determined by using an MTT assay as per the manufacturer's protocol.\nFor cytotoxicity experiments in primary hepatocytes, cells were seeded at 20 K cells per well in a 96-well plate overnight in M199 media. Hepatocytes were incubated with varying concentrations of Lusianthridin, Oligomycin or FCCP for 1 h at 37 C. The media was changed for media without phenol red, before performing an MTT assay as per the manufacturer's instructions (Thermo fisher, V131154)."}}}
{"smiles": "Nc1ncnc2c1ncn2[C@@H]1O[C@H](COP(=O)(O)O)[C@@H](O)[C@H]1O", "note": "[AMP, reference compound]", "values": [{"measurement": "activation of AMPK α2β1γ1 γ1 R298G mutant complexes", "setting": "[1]", "value": "impaired"}]}
{"smiles": "COc1cc(O)c2c(c1)CCc1cc(O)c(O)cc1-2", "note": "[Compound 2, 7-Methoxy-9,10-dihydrophenanthrene-2,3,5-triol]", "values": [{"measurement": "phosphorylation of the AMPK substrate ACC (pACC HTRF)", "setting": "[2]", "value": "increase"}, {"measurement": "activation of bacterially-expressed AMPKα2β1γ1 complexes", "setting": "AMPKα2β1γ1 (211)", "value": "activate"}]}
{"smiles": "Oc1ccc2c(c1)CCc1cccc(O)c1-2", "note": "[Compound 3, 9,10-Dihydrophenanthrene-2,5-diol]", "values": [{"measurement": "phosphorylation of the AMPK substrate ACC (pACC HTRF)", "setting": "[2]", "value": "increase"}, {"measurement": "activation of bacterially-expressed AMPKα2β1γ1 complexes", "setting": "AMPKα2β1γ1 (211)", "value": "activate"}]}
{"smiles": "Oc1ccc2c(c1)CCc1cc(O)cc(O)c1-2", "note": "[Compound 4, 9,10-Dihydrophenanthrene-2,4,7-triol]", "values": [{"measurement": "activation of bacterially-expressed AMPKα1β1γ1 complexes", "setting": "AMPKα1β1γ1 (111)", "value": "activates"}, {"measurement": "phosphorylation of the AMPK substrate ACC (pACC HTRF)", "setting": "[2]", "value": "increase"}, {"measurement": "activation of α2β1γ1 ΔCBM mutant", "setting": "[3]", "value": "did not activate"}, {"measurement": "activation of β2-containing AMPK complexes (α2β2γ1)", "setting": "AMPK α2β2γ1 (221)", "value": "did not activate"}, {"measurement": "fold increase in glucose uptake relative to control", "setting": "[4]", "value": "~2", "unit": "fold"}, {"measurement": "rate of lipogenesis (DPM per μg of protein)", "setting": "primary hepatocytes", "value": "dose-dependent decrease"}, {"measurement": "activation of AMPK complexes with the β1 S108A mutation", "setting": "[5]", "value": "did not activate"}, {"measurement": "activation of bacterially-expressed AMPKα2β1γ1 complexes", "setting": "AMPKα2β1γ1 (211)", "value": "activate"}]}
{"smiles": "COc1cc(O)c2c(c1)CCc1ccc(O)cc1-2", "note": "[Compound 5, 7-Methoxy-9,10-dihydrophenanthrene-3,5-diol]", "values": [{"measurement": "phosphorylation of the AMPK substrate ACC (pACC HTRF)", "setting": "[2]", "value": "increase"}, {"measurement": "activation of bacterially-expressed AMPKα2β1γ1 complexes", "setting": "AMPKα2β1γ1 (211)", "value": "activate"}]}
{"smiles": "N#CC(C#N)=NNc1ccc(OC(F)(F)F)cc1", "note": "[FCCP, carbonyl cyanide P-(trifluoromethoxy) phenylhydrazone]", "values": [{"measurement": "cell viability (MTT, percentage of viable cells)", "setting": "[6]", "value": "robust decrease in cell viability"}]}
{"smiles": "CC[C@H]1/C=C/C=C/C[C@@H](C)[C@H](O)[C@@](C)(O)C(=O)[C@@H](C)[C@H](O)[C@@H](C)C(=O)[C@@H](C)[C@H](O)[C@@H](C)/C=C/C(=O)O[C@@H]2[C@H](C)[C@H](CC1)O[C@]1(CC[C@H](C)[C@H](C[C@@H](C)O)O1)[C@H]2C", "note": "[Oligomycin]", "values": [{"measurement": "cell viability (MTT, percentage of viable cells)", "setting": "[6]", "value": "robust decrease in cell viability"}]}
